Measurements as given in patent US20040023952A1 (priority 2002, published 2004).

Test system: V1 cortical cells
Format: in vivo, rhesus monkeys (Macaca mulatta)
Conditions: for signal-to-noise ratio of cortical cells (response to appropriate stimuli divided by spontaneous discharge rate): FIG. 7; for peak response (maximum visually evoked response) of V1 cortical cells / spontaneous activity of V1 cortical cells: intracortical delivery through microelectrode; for peak response (maximum visually evoked response) of V1 cortical cells: FIG. 5; for spontaneous activity of V1 cortical cells: FIG. 6; for direction selectivity of a representative cortical cell / orientation selectivity of a representative cortical cell / peak response of a representative cortical cell / spontaneous activity of a representative cortical cell: single cell of old monkey, FIG. 10, three minutes after GABA or muscimol application, within five minutes of bicuculline
Excerpt: Extracellular single-neuron recording techniques were used to examine the stimulus selectivities of VI cells in very old rhesus monkeys showing normal optics and retinogeniculate projections. A total of 187 neurons were studied in 4 young rhesus monkeys (Maraca mulatta), and 254 neurons in 4 old rhesus monkeys. Subjects for physiological experiments were abbreviated as OM1-4 (for old monkey 1-4) and YM1-4 (for young monkey 1-4). Retinal data were obtained from one additional young macaque (YM5, Macaca fascicularis). Multiple ophthalmological exams were conducted to ensure optical and retinal health of all subjects prior to testing.
Subjects for this study were four young adult (7-9 year old) and four very old (28-30 year old) female rhesus monkeys (Macaca mullata). […] Thus, the 28-30 year old monkeys were considered old, whereas the 7-9 year old monkeys were at an age considered sexually mature. Retinal control data for FIG. 1 are provided from one additional young female Macaca facsicularis, which was used in previous studies. Onset latency data from YM4 are published. Monkeys were examined ophthalmoscopically, and no apparent optical or retinal problems were detected that would impair visual function. Retinal blood vessels, lens clarity and the maculae all appeared normal. All cells studied had receptive fields between 2 and 5 degrees from the fovea. Monkeys were prepared for electrophysiological recording using standard techniques consistent with Society for Neuroscience and National Institute of Health guidelines.
Subjects were sedated with Ketamine HC1 (Ketalar, Parke-Davis, Morris Plains, N.J.) and then anesthetized with halothane (5%; Halocarton Laboratories, River Edge, N.J.) in a 70:30 mixture of […]. Intravenous and tracheal cannulae were inserted, the animals were placed in a stereotaxic apparatus, and pressure points and incisions were infiltrated with a long-acting anesthetic (2% lidocaine HCI, Copley Pharmaccuticak, Canton, Mass.). A mixture of D-tubocurarine (0.4 mg per kg per hour) and gallamine triethiodide (7 mg per kg per hour) was infused intravenously to induce and maintain paralysis. Animals were ventilated, and anesthesia was maintained with a mixture of nitrous oxide (75%), oxygen (25%) and halothane (0.25-1.0%) as needed.
A small burr hole was made above the striate cortex (V1), and filled with a 4% solution of agar in saline and sealed with wax. The eyes were protected from desiccation with contact lenses; spectacle lenses and artificial pupils were used when needed to focus the eyes on a tangent screen positioned 228 cm from the retina. The locations of the optic discs and foveae were determined repeatedly during the course of each recording session. No visible deterioration in optics occurred during the experimental period (2-5 days).
Extracellular action potentials of isolated cortical cells were recorded with microelectrodes having impedances of 3-5 MΩ. The electrode was advanced using a hydraulic microdrive (David Kopf instruments, Tojunga, Calif.) to precisely position it. The position of the electrode was confirmed by determining the receptive filed positions of the cortical cells at the recording site. A1 V1 cells studied had receptive fields between about 3 and 7 degrees from the fovea.
After placing the microelectrode as in Example 1, visual stimuli were measured using a Tektronix (Beaverton, Oreg.) 608 display driven by a Picasso (Inning Cambridge, Mass.) image synthesizer and a texture/motion generator (Innisfree). The Picasso and texture/motion generator were computer controlled in conjunction with a hardware and software package from Cambridge Electronics Design (Cambridge, England). The center of the display screen was 171 cm from the animal's retina.
The physiological orientation biases and direction biases of cortical cell were studied quantitatively. The orientation of each drifting stimulus presented was orthogonal to its direction of motion. […]

Question: What does the source list for NCc1cc(=O)[nH]o1 [muscimol]?
Answer: signal-to-noise ratio of cortical cells (response to appropriate stimuli divided by spontaneous discharge rate) (old monkeys): increased signal-to-noise ratios dramatically; time until drug effects wear off after administration ceases (old monkeys, intracortical delivery): Five minutes after the discontinuation; peak response (maximum visually evoked response) of V1 cortical cells (old monkeys): reduce the peak responses and spontaneous activity of cortical cells to the normal levels seen in young monkeys; spontaneous activity of V1 cortical cells (old monkeys): reduce the peak responses and spontaneous activity of cortical cells to the normal levels seen in young monkeys; direction selectivity of a representative cortical cell: very strong direction selectivity; orientation selectivity of a representative cortical cell: moderate orientation selectivity; peak response of a representative cortical cell: decreased peak response; spontaneous activity of a representative cortical cell: decreased spontaneous activity

Question: Which “signal-to-noise ratio of cortical cells (response to appropriate stimuli divided by spontaneous discharge rate)” value (old monkeys) does the source give for NCCCC(=O)O [GABA, Gamma-aminobutyric acid] here?
Answer: The value was “increased signal-to-noise ratios dramatically”.

Question: And the “number/proportion of orientation and direction selective cells in area V1” value (old monkeys, FIGS. 8 and 9)?
Answer: Its value is “very close to what is found in normal young monkeys”.

Question: What about the “peak response (maximum visually evoked response) of V1 cortical cells” value (old monkeys) of the same compound?
Answer: Its value is “reduce the peak responses and spontaneous activity of cortical cells to the normal levels seen in young monkeys”.

Question: What about the “spontaneous activity of V1 cortical cells” value (old monkeys) of the same compound?
Answer: The value was “reduce the peak responses and spontaneous activity of cortical cells to the normal levels seen in young monkeys”.

Question: What about the “time until effects are seen after drug administration” value (old monkeys, intracortical delivery, current 15-50 n amp for 1-3 minutes) of the same compound?
Answer: The value was “Three to five minutes”.

Question: What about the “direction selectivity of a representative cortical cell” value of the same compound?
Answer: Its value is “moderate direction selectivity”.

Question: And the “orientation selectivity of a representative cortical cell” value?
Answer: The value was “strong orientation”.

Question: And the “peak response of a representative cortical cell” value?
Answer: Its value is “peak response decreased”.

Question: And the “spontaneous activity of a representative cortical cell” value?
Answer: Its value is “decreased as did its spontaneous activity”.
